Experimental data as given in EP4707280A1, “1,4-CINEOLE DERIVATIVE AND INTERMEDIATE THEREOF, HERBICIDE CONTAINING SAID DERIVATIVE AS ACTIVE INGREDIENT, METHOD FOR USING HERBICIDE, AND METHOD FOR PREPARING AGROCHEMICAL COMPOSITION” (HOKKO CHEMICAL INDUSTRY CO., LTD., priority 2023, dated 2024).

How the values were obtained:
Type in all cases: in vivo
[1] = system: Echinochloa crus-galli var. formosensis; assay: Test Example 1: herbicidal effect test by soil application in paddy rice; details: Echinochloa crus-galli, soil, 336 h; 120 g active ingredient per 10 ares; applied immediately after sowing, flooded pots; 14 days after application; read-out: weed inhibition rate
Procedure, shortened: (§1)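 Weeds sown 0–1 cm deep (30 seeds each) into fertilized, puddled paddy soil in Wagner pots. Pots are flooded immediately, water held near 3 cm, and the diluted emulsifiable concentrate is dripped in at once, delivering 120 g active ingredient per 10 ares under glass-greenhouse management.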

[2] = system: Scirpus juncoides; assay: as above; details: Schoenoplectiella juncoides, soil, 336 h; 120 g active ingredient per 10 ares; applied immediately after sowing, flooded pots; 14 days after application; read-out: weed inhibition rate
Procedure, shortened: as §1

[3] = system: Echinochloa crus-galli var. formosensis; assay: Test Example 2: herbicidal effect test by application during growth period of paddy rice; details: Echinochloa crus-galli; 120 g per 10 ares; applied seven days after sowing, flooded pots; 14 days after application; read-out: weed inhibition rate
Procedure, shortened: (§2)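 Steps: puddle fertilized paddy soil; sow 30 seeds of each weed at 0–1 cm; flood to roughly 3 cm and keep in a glasshouse; at day 7 drop in diluted emulsifiable concentrate (120 g a.i. per 10 ares); score inhibition (%) 14 days later, two replicates.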

[4] = system: Echinochloa crus-galli var. formosensis; assay: Test Example 5: herbicidal effect test by soil application in paddy rice (low dose); details: Echinochloa crus-galli, soil, 336 h; 7.5 g per 10 ares; applied immediately after sowing, flooded pots; 14 days after application; read-out: weed inhibition rate
Procedure, shortened: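 Flooded-paddy soil application at low dose (7.5 g a.i. per 10 ares), given by dropper as diluted emulsifiable concentrate directly after sowing weeds 0–1 cm deep. Effect evaluated after 14 days in duplicate.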

[5] = system: Digitaria ciliaris; assay: Test Example 3: herbicidal effect test by soil application in upland field; details: Digitaria ciliaris, 120 g per 10 ares, sprayed one day after sowing, 14 days after application, read-out: weed inhibition rate
Procedure, shortened: (§3)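 Pre-emergence test: seeds mixed into top 1 cm of alluvial loam upland soil in pots; emulsifiable concentrate diluted in water sprayed on soil one day after sowing at 100 L/10 a, 120 g a.i./10 a. Weed inhibition rate (%) scored at 14 days, in duplicate.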

[6] = system: Echinochloa crus-galli; assay: as above; details: Echinochloa crus-galli, 120 g per 10 ares, sprayed one day after sowing, 14 days after application, read-out: weed inhibition rate
Procedure, shortened: as §3

[7] = system: Digitaria ciliaris; assay: Test Example 4: herbicidal effect test by stem and leaf treatment in upland field; details: Digitaria ciliaris; 120 g per 10 ares; sprayed seven days after sowing, upland soil; 14 days after application; read-out: weed inhibition rate
[8] = system: Digitaria ciliaris; assay: Test Example 8: herbicidal effect test by stem and leaf treatment in upland field (low dose); details: Digitaria ciliaris; 7.5 g per 10 ares; sprayed seven days after sowing, upland soil; 14 days after application; read-out: weed inhibition rate
Method: (§4) The present test was conducted in duplicate for each chemical concentration group, and the weed inhibition rate (%) was determined 14 days after chemical application using the following formula (Math. 1). [formula]
(§5) Pots with an area of 36 cm^2 were filled with upland soil (alluvial loam), twenty seeds each of weeds of Digitaria ciliaris, and Echinochloa crus-galli were uniformly mixed with the top 1 cm layer of soil and the surface was lightly pressed down. Seven days after sowing, an emulsifiable concentrate prepared according to Formulation Example 5 using the compound shown below was diluted with water, and the diluted solution was sprayed onto the soil surface at a rate of 100 liters per 10 ares. The amount of the active ingredient to be applied was equivalent to 7.5 g per 10 ares. Fourteen days after chemical application, the herbicidal effect was evaluated according to the same criteria as in Test Example 1.

[9] = system: Echinochloa crus-galli; assay: as above; details: Echinochloa crus-galli; 7.5 g per 10 ares; sprayed seven days after sowing, upland soil; 14 days after application; read-out: weed inhibition rate
Method: as §4, §5

[10] = system: Echinochloa crus-galli var. formosensis; assay: Test Example 6: herbicidal effect test by application during growth period of paddy rice (low dose); details: Echinochloa crus-galli; 7.5 g per 10 ares; applied seven days after sowing, flooded pots; 14 days after application; read-out: weed inhibition rate
Procedure, shortened: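 Low-dose water application, 7.5 g a.i. per 10 ares, given by dropper into flooded pots (about 3 cm depth) 7 days after sowing of 30 weed seeds each at 0–1 cm. Evaluation of inhibition (%) took place 14 days later, duplicate per rate.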

[11] = system: Echinochloa crus-galli; assay: Test Example 4: herbicidal effect test by stem and leaf treatment in upland field; details: Echinochloa crus-galli; 120 g per 10 ares; sprayed seven days after sowing, upland soil; 14 days after application; read-out: weed inhibition rate
[12] = system: Digitaria ciliaris; assay: Test Example 7: herbicidal effect test by soil application in upland field (low dose); details: Digitaria ciliaris, 7.5 g per 10 ares, sprayed one day after sowing, 14 days after application, read-out: weed inhibition rate
Method: as §4
as §5, with “One day” for “Seven days”

[13] = system: Echinochloa crus-galli; assay: as above; details: Echinochloa crus-galli, 7.5 g per 10 ares, sprayed one day after sowing, 14 days after application, read-out: weed inhibition rate
Method: as §4
as §5, with “One day” for “Seven days”

[14] = system: Scirpus juncoides; assay: Test Example 2: herbicidal effect test by application during growth period of paddy rice; details: Schoenoplectiella juncoides; 120 g per 10 ares; applied seven days after sowing, flooded pots; 14 days after application; read-out: weed inhibition rate
Procedure, shortened: as §2

CC(C)[C@]12C[C@@H](OCc3ccc(F)cc3F)[C@](C)(CC1=O)O2 [2-16, (1R,4S,5R)-5-((2,4-difluorobenzyl)oxy)-1-isopropyl-4-methyl-7-oxabicyclo[2.2.1]heptan-2-one]
≥ 80%: pest or weed control at 1200 g/ha [1] | pest or weed control at 1200 g/ha [2] | inhibition at 1200 g/ha [3] | inhibition at 75 g/ha [4] | inhibition at 1200 g/ha [5] | inhibition at 1200 g/ha [6] | inhibition at 1200 g/ha [7] | inhibition at 75 g/ha [8] | inhibition at 75 g/ha [9] | inhibition at 75 g/ha [10] | inhibition at 1200 g/ha [11] | inhibition at 75 g/ha [12] | inhibition at 75 g/ha [13]

CC(C)C12CC(OCc3c(F)cccc3Br)C(C)(CC1I)O2 (stereo not drawn) [1-1612, 5-[(2-bromo-6-fluoro-phenyl)methoxy]-2-iodo-1-isopropyl-4-methyl-7-oxabicyclo[2.2.1]heptane]
≥ 80%: pest or weed control at 1200 g/ha [1] | pest or weed control at 1200 g/ha [2] | inhibition at 1200 g/ha [3] | inhibition at 1200 g/ha [14] | inhibition at 75 g/ha [4] | inhibition at 1200 g/ha [5] | inhibition at 1200 g/ha [6] | inhibition at 1200 g/ha [7] | inhibition at 75 g/ha [8] | inhibition at 75 g/ha [9] | inhibition at 75 g/ha [10] | inhibition at 1200 g/ha [11] | inhibition at 75 g/ha [12] | inhibition at 75 g/ha [13]

COc1ccccc1CO[C@@H]1C[C@]2(C(C)C)O[C@@]1(C)C[C@@H]2Cl [1-11, (1R,2S,4S,5R)-2-chloro-1-isopropyl-5-[(2-methoxyphenyl)methoxy]-4-methyl-7-oxabicyclo[2.2.1]heptane]
≥ 80%: pest or weed control at 1200 g/ha [1] | pest or weed control at 1200 g/ha [2] | inhibition at 1200 g/ha [3] | inhibition at 1200 g/ha [14] | inhibition at 75 g/ha [4] | inhibition at 1200 g/ha [5] | inhibition at 1200 g/ha [6] | inhibition at 1200 g/ha [7] | inhibition at 75 g/ha [8] | inhibition at 75 g/ha [9] | inhibition at 75 g/ha [10] | inhibition at 1200 g/ha [11] | inhibition at 75 g/ha [12] | inhibition at 75 g/ha [13]

CC(C)C12CC(OCc3ccccc3C#N)C(C)(CC1Cl)O2 (stereo not drawn) [1-1304, 2-[(5-chloro-1-methyl-4-isopropyl-7-oxabicyclo[2.2.1]heptan-2-yl)oxymethyl]benzonitrile]
≥ 80%: pest or weed control at 1200 g/ha [1] | pest or weed control at 1200 g/ha [2] | inhibition at 1200 g/ha [3] | inhibition at 1200 g/ha [14] | inhibition at 75 g/ha [4] | inhibition at 1200 g/ha [5] | inhibition at 1200 g/ha [6] | inhibition at 1200 g/ha [7] | inhibition at 75 g/ha [8] | inhibition at 75 g/ha [9] | inhibition at 75 g/ha [10] | inhibition at 1200 g/ha [11] | inhibition at 75 g/ha [12] | inhibition at 75 g/ha [13]

CC(C)[C@]12C[C@@H](OCc3ccsc3)[C@](C)(C[C@@H]1I)O2 [1-789, (1R,2S,4S,5R)-2-iodo-1-isopropyl-4-methyl-5-(3-thienylmethoxy)-7-oxabicyclo[2.2.1]heptane]
≥ 80%: pest or weed control at 1200 g/ha [1] | pest or weed control at 1200 g/ha [2] | inhibition at 1200 g/ha [3] | inhibition at 1200 g/ha [14] | inhibition at 75 g/ha [4] | inhibition at 1200 g/ha [5] | inhibition at 1200 g/ha [6] | inhibition at 1200 g/ha [7] | inhibition at 75 g/ha [8] | inhibition at 75 g/ha [9] | inhibition at 75 g/ha [10] | inhibition at 1200 g/ha [11] | inhibition at 75 g/ha [12] | inhibition at 75 g/ha [13]
